Data set [1] concerns the target T1, Sodium-dependent noradrenaline transporter (Homo sapiens, UniProt P23975). Nature of the data set: Binding affinity to NET.
In data set [2] the target is Sodium-dependent dopamine transporter (Homo sapiens) (UniProt Q01959). Nature of the data set: Displacement of […] from DAT at 1000 nM. On the technique in general: Displacement assays read how much labelled ligand stays bound in the presence of the test substance.
Data set [3] concerns the target Sodium-dependent serotonin transporter (Homo sapiens) (UniProt P31645). Nature of the data set: Displacement of [3H]5-HT from SERT at 100 nM.
The target in data set [4] is T1, Sodium-dependent noradrenaline transporter. Nature of the data set: Binding affinity to NET at 100 nM.
The species entered for a further data set is Canis familiaris. Nature of the data set: Stability in dog liver microsome. It is filed as ADME, Canis lupus familiaris. In general terms: Microsomes from liver hold many membrane-bound enzymes, among them those of drug oxidation.
The test system of data set [5] is Liver microsomes. Nature of the data set: Stability in rat liver microsome. The data set is classed as ADME.
Data set [6] has as its system Rattus norvegicus. Nature of the data set: Ability to block alpha-MMT-induced depletion of cortical norepinephrine concentration in Sprague-Dawley rat at 3 mg/kg, sc. The data set is classed as functional. The settings on record: route subcutaneous.
Data set [7] deals with Liver microsomes. Nature of the data set: Stability in human liver microsome. It is filed as ADME.
For data set [8], the system named is Rattus norvegicus. Nature of the data set: Ability to block alpha-MMT-induced depletion of cortical norepinephrine concentration in orally dosed Sprague-Dawley rat. It is filed as functional. To be noted: po.

From ChEMBL document CHEMBL1146108, “Discovery of novel and selective tertiary alcohol containing inhibitors of the norepinephrine transporter” (Bioorg Med Chem Lett, 2006) come the findings set out here.

“And” between values parts separate entries of the source, which are not always exact repeats. Identical values can stand only once.

Sodium-dependent dopamine transporter (Homo sapiens), sequence (Q01959 whole entry): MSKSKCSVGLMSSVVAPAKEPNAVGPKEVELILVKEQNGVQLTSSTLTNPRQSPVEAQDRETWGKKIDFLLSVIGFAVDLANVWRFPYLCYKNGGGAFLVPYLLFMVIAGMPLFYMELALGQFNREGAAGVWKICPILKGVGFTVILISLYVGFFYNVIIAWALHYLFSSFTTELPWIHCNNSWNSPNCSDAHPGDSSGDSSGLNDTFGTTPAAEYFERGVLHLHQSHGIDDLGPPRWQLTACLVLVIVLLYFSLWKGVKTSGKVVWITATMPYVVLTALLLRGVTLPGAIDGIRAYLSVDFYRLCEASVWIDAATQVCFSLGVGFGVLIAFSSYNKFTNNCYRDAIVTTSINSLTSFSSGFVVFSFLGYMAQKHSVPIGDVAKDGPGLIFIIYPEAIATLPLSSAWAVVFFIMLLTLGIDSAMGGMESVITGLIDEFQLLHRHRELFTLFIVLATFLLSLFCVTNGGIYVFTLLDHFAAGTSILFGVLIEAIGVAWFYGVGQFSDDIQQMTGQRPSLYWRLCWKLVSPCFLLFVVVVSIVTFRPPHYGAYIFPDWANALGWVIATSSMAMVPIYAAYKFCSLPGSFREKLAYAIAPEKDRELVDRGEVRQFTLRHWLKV
Sodium-dependent serotonin transporter (Homo sapiens), sequence (P31645 whole entry, looked up): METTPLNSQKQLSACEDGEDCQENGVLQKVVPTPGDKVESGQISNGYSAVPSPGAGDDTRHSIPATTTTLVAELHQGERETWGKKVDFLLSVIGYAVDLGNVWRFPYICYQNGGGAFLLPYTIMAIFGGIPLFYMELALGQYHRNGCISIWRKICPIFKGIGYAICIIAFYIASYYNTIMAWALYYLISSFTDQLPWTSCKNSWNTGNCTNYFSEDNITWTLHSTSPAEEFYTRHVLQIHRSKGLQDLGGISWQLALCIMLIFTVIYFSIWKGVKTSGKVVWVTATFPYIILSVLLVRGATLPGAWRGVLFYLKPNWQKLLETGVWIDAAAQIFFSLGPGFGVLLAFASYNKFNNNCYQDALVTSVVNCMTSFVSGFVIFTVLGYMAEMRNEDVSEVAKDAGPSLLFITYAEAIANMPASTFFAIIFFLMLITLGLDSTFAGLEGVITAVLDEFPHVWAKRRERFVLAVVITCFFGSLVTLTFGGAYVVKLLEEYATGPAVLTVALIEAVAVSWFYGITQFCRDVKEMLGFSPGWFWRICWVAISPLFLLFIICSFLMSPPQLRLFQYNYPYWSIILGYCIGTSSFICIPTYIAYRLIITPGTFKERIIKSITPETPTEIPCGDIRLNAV
T1 sequence (P23975 whole entry): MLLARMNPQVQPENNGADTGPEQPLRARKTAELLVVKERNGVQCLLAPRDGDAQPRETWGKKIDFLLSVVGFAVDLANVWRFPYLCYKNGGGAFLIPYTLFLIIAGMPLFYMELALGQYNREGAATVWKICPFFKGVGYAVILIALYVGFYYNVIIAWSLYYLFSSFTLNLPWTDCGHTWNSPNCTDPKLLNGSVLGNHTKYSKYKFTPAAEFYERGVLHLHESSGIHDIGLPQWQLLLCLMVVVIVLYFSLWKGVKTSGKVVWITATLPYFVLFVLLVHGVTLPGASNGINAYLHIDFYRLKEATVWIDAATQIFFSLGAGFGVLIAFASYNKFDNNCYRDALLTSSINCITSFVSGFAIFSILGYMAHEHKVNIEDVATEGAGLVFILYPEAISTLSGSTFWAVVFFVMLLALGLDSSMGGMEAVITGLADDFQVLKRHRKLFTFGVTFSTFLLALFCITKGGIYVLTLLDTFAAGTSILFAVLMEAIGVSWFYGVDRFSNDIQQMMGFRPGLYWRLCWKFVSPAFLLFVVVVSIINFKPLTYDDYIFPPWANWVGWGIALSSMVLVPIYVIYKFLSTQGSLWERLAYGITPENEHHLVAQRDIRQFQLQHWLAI

As a reminder, the Ki is the dissociation constant of the complex between target and ligand, obtained from inhibition or displacement. Low values mean tighter binding, high ones weaker binding. As a reminder, the inhibition is how much of the control response was suppressed. `CCOc1ccccc1C[C@@](O)(c1ccccc1)[C@@H]1CNCCO1`: in data set [1], the Ki came out at 5.2 nM. The inhibition came to 3.8% in data set [2] and 2.4% in data set [3].
Turning to `O[C@](Cc1ccccc1Br)(c1ccccc1)[C@@H]1CNCCO1`, the Ki in [1] is 11.9 nM. Also, the inhibition in data set [2] worked out at 24.1%; in data set [3] it was 13%.
On to `COc1ccccc1C[C@@](O)(c1ccccc1)[C@@H]1CNCCO1` [listing 1 of 3 here], for which the Ki in data set [1] amounted to 161 nM.
For `COc1ccccc1C[C@@](O)(c1ccccc1)[C@@H]1CNCCO1` [listing 2 of 3 here], the inhibition in data set [2] was 4.7% and 3.8% and 3.7%; in data set [3], 5% and 5.5% and 1.4%.
Consider `COc1ccc(C[C@@](O)(c2ccccc2)[C@@H]2CNCCO2)cc1`, for which the inhibition in data set [4] amounted to 25.2%; in data set [2] it was 6.2%; in [3], 4.3%.
On to `CC(C)Oc1ccccc1C[C@@](O)(c1ccccc1)[C@@H]1CNCCO1`, for which, in data set [1], the Ki amounted to 7.7 nM. Also, the inhibition in data set [2] was determined as 5.1%; in data set [3], 2.7%.
Regarding `COc1cccc(C[C@@](O)(c2ccccc2)[C@@H]2CNCCO2)c1`, the inhibition in data set [4] amounted to 19.8%; in data set [2], 4.3%; in data set [3], 2.8%.
As a reminder, the ED50 is the dose that gives a 50% effect, or the effect in half of the subjects. Regarding `COc1ccccc1C[C@@](O)(c1ccccc1)[C@@H]1CNCCO1.Cl.Cl.Cl`, the Ki in [1] came out at 3.2 nM. Besides, the Stability is reported as 60% in the data set listed under Canis familiaris, 0% with Liver microsomes [5] and 98% with Liver microsomes [7]. In the data set with Rattus norvegicus [6], this molecule displayed an Activity of 70%. This molecule yielded an ED50 in the data set on Rattus norvegicus [8] of 18 mg/kg.
`COc1ccccc1C[C@@](O)(c1ccccc1)[C@@H]1CNCCO1` (single isomer, unassigned; isomer 2) [listing 1 of 2 here] showed a Ki in [1] of 156 nM.
`O[C@](Cc1ccccc1Cl)(c1ccccc1)[C@@H]1CNCCO1` displayed a Ki in data set [1] of 30 nM. In addition, the inhibition in data set [2] was found to be 20.8%; in [3], 4.6%.
In the same order, the values of `O[C@](Cc1ccccc1-c1ccccc1)(c1ccccc1)[C@@H]1CNCCO1` (single isomer, unassigned) are 3.7 nM, 2.9% and 3%.
In turn, `O[C@](Cc1ccccc1SC(F)(F)F)(c1ccccc1)[C@@H]1CNCCO1` yielded a Ki in [1] of 54.4 nM. For the same molecule, the inhibition stood at 6.2% in data set [2] and 14.8% in data set [3].
On the same counts, the results for `O[C@](Cc1ccccc1)(c1ccccc1)[C@@H]1CNCCO1` are 148 nM, 5.5% and 4.2%.
`COc1ccccc1C[C@@](O)(c1ccccc1)[C@@H]1CNCCO1` [listing 3 of 3 here] registered a Ki in [1] of 56 nM.
In the case of `COc1ccccc1C[C@@](O)(c1ccccc1)[C@@H]1CNCCO1` (single isomer, unassigned; isomer 2) [listing 2 of 2 here], the inhibition in data set [2] came out at 4.6%; in data set [3], 0.3%.
